Source: patent US6444850B1, “Fungicidial compounds having a fluorovinyloxphyenyl moiety and process for the preparation thereof” (priority 1997, dated 2002)

Legend:
Erysiphae graminis = assay: Fungicidal activity against barley powdery mildew (BPM) disease; type: in vivo; conditions: for C. V. (%) BPM: 50 ppm, control value, barley powdery mildew; for C. V. (%), Fungicidal activities against TLB at 10 ppm: Table 9 (Test Example 6)
Method: Erysiphae graminis was subcultured on a wheat plant in a laboratory. 15 g of barley seeds was sowed in a pot (diameter 6.5 cm) and cultured in a greenhouse for 7 days to obtain a barley plant having only a primary leaf. The barley plant was inoculated with spores by shaking thereover another plant infected by BPM. The inoculated barley plant was cultured in an incubator maintained at a temperature of 22 to 24° C. and a relative humidity of 50% for 7 days to induce BPM. L.A. on the leaf was measured to calculate an C.V.

Phytophthora infestans = type: in vivo; conditions: 50 ppm; control value, tomato late blight
Rhizoctonia solani AG-1 = assay: Fungicidal activity against rice sheath blight (RSB) disease; conditions: 50 ppm, control value
Method: 50 ml of the resulting solution was sprayed on leaves of a host plant. The plant was kept at room temperature for 24 hours to let the solvent evaporate, and then, a pathogenic fungus was inoculated thereonto. The plant was held in a humidity chamber for 24 hours, transferred to an plant growth room kept at 20 to 27° C. and a relative humidity of 60 to 80% and kept to induce disease. Subsequently, the lesion area(L.A.) attacked by the pathogenic fungus was measured according to a method of Cho(Cho, K. Y., Search Report by Korea Research Institute of Chemical Technology (1989))”. This procedure was repeated twice for each test. 10% Acetone solution containing 250 ppm of Tween-20 was used as a control.
The fungicidal activity of the compound of the present invention is repressed by a control value (C.V.) calculated as; [formula]
Rhizoctonia solani AG-1 was cultured on a PDA medium(potato 200 g, dextrose 20 g, agar 20 g and distilled water 1 l) for 3 days and the agar disc (diameter 0.6 cm) was inoculated and cultured on sterilized wheat bran medium in a 1 l bottle at 26 to 28° C. for 7 days. A mycelial mass was ground using a homogenizer, inoculated uniformly on soil of a pot wherein a Nakdong rice plant having 2 or 3 leaves and an height of 5 cm grew, and kept in humidity polyvinyl chamber for 5 days to induce RSB. L.A. on a leaf sheath was measured to calculate an C.V.

[1] = test system: Pyricularia oryzae Carvara KA301; type: in vivo; conditions: for C. V. (%) RCB: 50 ppm, control value, rice blast; for C. V. (%) Fungicidal Activities against RCB at 10 ppm / C. V. (%) Fungicidal Activities against RCB at 10 ppm (TABLE 6): sprayed on Nakdong rice plant, control value from lesion area
Puccinia recondita = assay: Fungicidal activity against wheat leaf rust (WLR) disease; type: in vivo; conditions: for C. V. (%) WLR: 50 ppm, control value, wheat leaf rust; for C. V. (%), Fungicidal Activities against WLB at 10 ppm: Table 8 (Test Example 5)
Botrytis cinerae = assay: Fungicidal activity against cucumber gray mold rot (CGM) disease; type: in vivo; conditions: 50 ppm, control value
Method: Botrytis cinerae, which was isolated from cucumber infected thereby, was inoculated on a PDA agar medium and cultured under a 12L/12D cycle at 25° C. for 15 days to form spore. The spores were scraped, filtered through a gauze and then suspended in potato dextrose liquid medium at a concentration of 1×10^6 spore/ml. The spore suspension was sprayed on a cucumber plant having one leaf. The cucumber plant was held in a humidified room at 20° C. for 3 days. L.A. on a leaf was measured to calculate an C.V.

SMILES | C. V. (%) BPM (Erysiphae graminis) [%] | C. V. (%) TLB (Phytophthora infestans) [%] | C. V. (%) RSB (Rhizoctonia solani AG-1) [%] | C. V. (%) RCB [1] [%] | C. V. (%) WLR (Puccinia recondita) [%] | C. V. (%) CGM (Botrytis cinerae) [%] | C. V. (%), Fungicidal activities against TLB at 10 ppm (Erysiphae graminis) [%] | C. V. (%) Fungicidal Activities against RCB at 10 ppm [1] [%] | C. V. (%) Fungicidal Activities against RCB at 10 ppm (TABLE 6) [1] [%] | C. V. (%), Fungicidal Activities against WLB at 10 ppm (Puccinia recondita) [%]
CNC(=O)C(=COC)c1ccccc1COc1cccc(OC(F)=Cc2cccc(OC)c2)c1 [Compound 26] | 88 | 55 | 35 | 20 | 70 | 0 | – | – | – | –
CON=C(C(=O)OC)c1ccccc1COc1cccc(OC(F)=Cc2cccc(OC)c2)c1 [Compound 27] | 96 | 80 | 90 | 100 | 86 | 0 | 97 | – | – | –
COC(=O)C(=CSC)c1ccccc1COc1cccc(OC(F)=Cc2cccc(OC)c2)c1 [Compound 28] | 97 | 73 | 70 | 93 | 91 | 21 | – | – | – | –
COC=C(C(=O)OC)c1ccccc1COc1cccc(OC(F)=Cc2ccc(OC)cc2)c1 [Compound 29] | 99 | 56 | 90 | 93 | 100 | 28 | 90 | 92 | 92 | 99
CNC(=O)C(=COC)c1ccccc1COc1cccc(OC(F)=Cc2ccc(OC)cc2)c1 [Compound 30] | 16 | 6 | 5 | 93 | 0 | 28 | – | – | – | –
CON=C(C(=O)OC)c1ccccc1COc1cccc(OC(F)=Cc2ccc(OC)cc2)c1 [Compound 31] | 50 | 84 | 30 | 93 | 93 | 0 | – | – | – | –
COC=C(C(=O)OC)c1ccccc1COc1cccc(OC(F)=Cc2ccc(Oc3ccccc3)cc2)c1 [Compound 32] | 90 | 24 | 30 | 30 | 88 | 20 | – | – | – | –
CON=C(C(=O)OC)c1ccccc1COc1cccc(OC(F)=Cc2ccc(Oc3ccccc3)cc2)c1 [Compound 33] | 94 | 10 | 5 | 20 | 83 | 20 | – | – | – | –
COC=C(C(=O)OC)c1ccccc1COc1cccc(OC(F)=Cc2cccc(F)c2)c1 [Compound 34] | 100 | 75 | 95 | 99 | 98 | 0 | 100 | 100 | 100 | 100
CNC(=O)C(=COC)c1ccccc1COc1cccc(OC(F)=Cc2cccc(F)c2)c1 [Compound 35] | 58 | 35 | 30 | 15 | 40 | 35 | – | – | – | –
COC=C(C(=O)OC)c1ccccc1COc1cccc(OC(F)=Cc2ccc(F)cc2)c1 [Compound 36] | 99 | 66 | 95 | 100 | 100 | 0 | 100 | 94 | 94 | 100
